# Assays:
# TAK1-TAB1 fusion protein = target: T1, TAK1-TAB1 fusion protein (Homo sapiens, UniProt O43318); experiment: In vitro TAK1 kinase assay (33P-ATP, casein substrate); type: biochemical; conditions: semi-quantitative score, at least two independent experiments
# T1 construct: purchased Upstate 14-600
# T1 sequence (O43318 with tags, fused parts or gaps limits assumed): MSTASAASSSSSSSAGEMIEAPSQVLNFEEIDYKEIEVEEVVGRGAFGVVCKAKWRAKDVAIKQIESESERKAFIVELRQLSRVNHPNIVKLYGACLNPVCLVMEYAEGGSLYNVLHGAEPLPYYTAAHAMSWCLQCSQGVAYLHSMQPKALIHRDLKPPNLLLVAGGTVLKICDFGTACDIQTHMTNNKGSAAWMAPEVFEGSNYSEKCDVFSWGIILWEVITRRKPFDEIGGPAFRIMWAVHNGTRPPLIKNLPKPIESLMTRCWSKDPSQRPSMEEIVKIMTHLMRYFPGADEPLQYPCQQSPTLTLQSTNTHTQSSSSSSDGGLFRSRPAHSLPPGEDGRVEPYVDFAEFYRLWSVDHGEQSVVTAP
# Protocol: For assessing TAK1 inhibition, active TAK1-TAB1 fusion protein was used from Upstate (Cat. No, 14-600). Kinase reactions are set up in 96-well polypropylene plates in 25 μL containing 0.5 mU TAK1-TAB1 fusion protein, […], 0.01 μCi/μL [^33P]-γ-ATP, 0.1 mg/mL casein substrate in 1× reaction buffer containing 10 mM MOPS pH 7.0, 1 mM EDTA.
# Starting from the compound master stocks (all at 10 mM concentration in 100% DMSO) a 3-fold serial dilution is made in 96-well plates in 100% DMSO. Plates are further diluted […] in H2O containing 3.5% DMSO, to obtain an intermediate work stock with compounds at 5× the final assay concentration in 5% DMSO.
# 5 μL of the intermediate stock is transferred into V-bottom 96 well polypropylene plates and 11 μL of Enzyme mix is added. Enzyme mix is made by combining 5 μL 5× reaction buffer ([…] pH 7.0, 1 mM EDTA), 5 μL casein (Sigma) diluted in H2O to 0.5 mg/mL and 1 μL of TAK1-TAB1 fusion protein that was prediluted to 0.5 mU/μL in 1× enzyme dilution buffer (20 mM MOPS pH 7.0, 0.1 mM EDTA, 0.01% Brij-35, 5% glycerol, 1 mM DTT, 1 mg/ml BSA).
# The reactions are started by the addition of 9 μL of mixture containing ATP (20.83 uM) and [^33P]-γ-ATP (0.028 μCi/μL).
# The assay is stopped 90 minutes after incubation at 30° C. by the addition of 25 μL phosphoric acid (150 mM). The label incorporated into the casein substrate is separated from labeled unincorporated ATP by filtration onto 96-well filter plates using a harvester device. After 6 washes with 75 mM phosphoric acid, the bottom of the filter plates are sealed, and incorporated label is quantified after addition of 40 μL scintillation fluid using TopCount.
# Based on these percent inhibition data obtained in at least two independent experiments for the compounds, compounds are ranked using semi-quantitative scores. Table A below lists a number of compounds which have been or can be prepared according to the synthetic methods described herein. Semi-quantitative score: • *>3001 nM • ** 1001-3000 nM • *** 101-1000 nM • ****<100 nM
# [1] = test system: MMP1 expression from activated SFs (RASF); experiment: MMP assay: MMP1 expression (ELISA) by TNF-α-triggered RASFs; type: cell-based; conditions: RASF triggered with TNFα, MMP1 ELISA after 48 hrs, semi-quantitative score
# Protocol: A 384-well format ELISA for measurement of MMP1 is developed. Various primary antibodies are tested, as well as various ELISA protocols. The following protocol is developed and validated to measure MMP1 levels in SF supernatant in 384 well plates: white Lumitrac 600 384 well plates (Greiner) are coated with 2 μg/mL anti-MMP1 antibody MAB1346 (Chemicon). The antibody is diluted in buffer 40 (1.21 g Tris base (Sigma), 0.58 g NaCl (Calbiochem) and 5 mL 10% NaN3 (Sigma) in 1 L milliQ water and adjusted to pH 8.5). After overnight incubation at 4° C., plates are washed with PBS (80 g NaCl, 2 g KCl (Sigma), 11.5 g Na2HPO4.7H2O and 2 g KH2PO4 in 10 L milliQ; pH 7.4) and blocked with 100 μL/well Casein buffer (2% Casein (VWR International) in PBS). Next day, casein buffer is removed from ELISA plates and replaced by 50 μL/well EC buffer (4 g casein, 2.13 g Na2HPO4 (Sigma), 2 g bovine albumin (Sigma), 0.69 g NaH2PO4.H2O (Sigma), 0.5 g CHAPS (Roche), 23.3 g NaCl, 4 mL 0.5 M EDTA pH 8 (Invitrogen), 5 mL 10% NaN3 in 1 L milliQ and adjusted to pH 7.0). 0.25 mM DTT (Sigma) is added to the thawed sample plates. After removal of the EC buffer, 20 μL of sample is transferred to the ELISA plates. After overnight incubation at 4° C. plates are washed twice with PBS and once with PBST (PBS with 0.05% Tween-20 (Sigma)) and incubated with 35 μL/well biotinylated anti-MMP1 antibody solution (R&D). This secondary antibody is diluted in buffer C (0.82 g NaH2PO4.H2O, 4.82 g Na2HPO4, 46.6 g NaCl, 20 g bovine albumin and 4 ml, 0.5M EDTA pH 8 in 2 L milliQ and adjusted to pH 7.0) at a concentration of 5 μg/mL. After 2 h of incubation at RT, plates are washed as described above and incubated with 50 μL/well streptavidin-HRP conjugate (Biosource). Streptavidin-HRP conjugate is diluted in buffer C at a concentration of 0.25 μg/mL. After 45 min, plates are washed as described above and incubated for 5 min with 50 μL/well BM Chem ELISA Substrate (Roche). Readout is performed on the Luminoscan Ascent Luminometer (Labsystems) with an integration time of 200 msec or with an Envision reader (Perkin Elmer).
# SFs were acquired at passage 1 from a commercial supplier (Cell applications, Inc.). SFs are cultured in DMEM supplemented with 10% heat-inactivated FBS, 1× penicillin/streptomycin (Invitrogen) at 37° C., 10% CO2 until passage 6. Aliquots of the cells are frozen and cryopreserved in liquid nitrogen. Starting from a cryopreserved aliquot, cells are further expanded by sub-culturing cells at 1/3 ratio every week. Cells between passage 10 and 12 are routinely used in compound testing according to the following protocol.
# Starting from the compound master stocks (all at 10 mM concentration in 100% DMSO) a 3-fold serial dilution is made in 96-well plates in 100% DMSO. Then, plates are further diluted 45-fold in M199 medium supplemented with 1% heat-inactivated FBS to obtain a intermediate work stock.
# At day 1, RASFs are seeded in 96 well plates (flat bottom, tissue culture treated, Greiner) at a density of 3000 cells/well in complete synovial growth medium (Cell Applications). Day 5, the medium is completely removed from the cells, and replaced by 81 μL of M199 medium supplemented with 1% heat-inactivated FBS followed by addition of 10 μL compound out of the intermediate work stock. After an incubation period of 90 minutes, which allows the compounds to equilibrate and enter the cells, cells are stimulated with either TNF-α or ‘complex trigger’. TNF-α trigger is added in a volume of […] to obtain final concentration of 10 ng/mL. For that, TNF-α stock (PeproTech) at 10 μg/mL was diluted to 100 ng/mL TNF-α in M199 medium supplemented with 1% FBS. ‘Complex trigger’ mix is added in a volume of 20 μL to obtain a final concentration of 12.5%. For that, ‘complex trigger’ mix, is diluted to 80% with M199 medium supplemented with 1% FBS. […]
IC50 (TAK1-TAB1 fusion protein) [nM],EC50 [1] [nM],SMILES
101 to 1000,> 3000,"O=C1NCc2cc(-c3ccc(Nc4ccc(S(=O)(=O)NC5CCNC5)cc4)c4nccn34)ccc21 (stereo not drawn) [Compound 32, 4-(5-(1-oxoisoindolin-5-yl)imidazo[1,2-a]pyridin-8-ylamino)-N-(pyrrolidin-3-yl)benzene sulfonamide]"
1000 to 3000,101 to 1000,"NC(=O)c1ccc(-c2ccc(Nc3ccc(N4CCOCC4)cc3)c3nccn23)cc1 [Compound 1, 4-[8-(4-Morpholin-4-yl-phenylamino)-imidazo[1,2-a]pyridin-5-yl]-benzamide]"
101 to 1000,> 3000,"O=C(NCCN1CCOCC1)c1ccc(Nc2ccc(-c3ccc4c(c3)CNC4=O)n3ccnc23)cc1 [Compound 43, N-(2-morpholinoethyl)-4-(5-(1-oxoisoindolin-5-yl)imidazo[1,2-a]pyridin-8-ylamino)benzamide]"
< 100,> 3000,"CCN(CC)CCNC(=O)c1ccc(Nc2ccc(-c3ccc4c(c3)CNC4=O)n3ccnc23)cc1 [Compound 23, N-(2-(diethylamino)ethyl)-4-(5-(1-oxoisoindolin-5-yl)imidazo[1,2-a]pyridin-8-ylamino) benzamide]"
101 to 1000,101 to 1000,CCN1CCN(c2ccc(Nc3ccc(-c4cc[nH]c(=O)c4)n4ccnc34)cc2)CC1 [Compound 91]
101 to 1000,< 100,"CN1CCN(c2ccc(Nc3ccc(-c4ccc(C(N)=O)cc4)n4ccnc34)cc2)CC1 [Compound 3, 4-{8-[4-(4-Methyl-piperazin-1-yl)-phenylamino]-imidazo[1,2-a]pyridin-5-yl}-benzamide]"
101 to 1000,101 to 1000,"CN1CCN(c2ccc(Nc3ccc(-c4cn[nH]c4)n4ccnc34)c(F)c2)CC1 [Compound 7, [2-Fluoro-4-(4-methyl-piperazin-1-yl)-phenyl]-[5-(1H-pyrazol-4-yl)-imidazo[1,2-a]pyridin-8-yl]amine]"
101 to 1000,1000 to 3000,"CNS(=O)(=O)c1ccc(Nc2ccc(-c3ccc4c(c3)CNC4=O)n3ccnc23)cc1 [Compound 24, N-methyl-4-(5-(1-oxoisoindolin-5-yl)imidazo[1,2-a]pyridin-8-ylamino)benzene sulfonamide]"
101 to 1000,> 3000,"CC(C)N1CCN(c2ccc(Nc3ccc(-c4ccc(C(N)=O)cc4)n4ccnc34)cc2F)CC1 [Compound 11, 4-{8-[3-Fluoro-4-(4-isopropyl-piperazin-1-yl)-phenylamino]-imidazo[1,2-a]pyridin-5-yl}-benzamide]"
< 100,> 3000,"CN(C)C1CCN(C(=O)c2ccc(Nc3ccc(-c4ccc5c(c4)CNC5=O)n4ccnc34)cc2)C1 (stereo not drawn) [Compound 39, 5-(8-(4-(3-(dimethylamino)pyrrolidine-1-carbonyl)phenyl-amino)imidazo[1,2-a]pyridin-5-yl)isoindolin-1-one]"
101 to 1000,101 to 1000,"CC(C)N1CCN(c2ccc(Nc3ccc(-c4ccc(C(N)=O)cc4)n4ccnc34)cc2)CC1 [Compound 10, 4-{8-[4-(4-Isopropyl-piperazin-1-yl)-phenylamino]-imidazo[1,2-a]pyridin-5-yl}-benzamide]"
< 100,101 to 1000,"CC(C)N1CCC(c2ccc(Nc3ccc(-c4ccc5c(c4)CNC5=O)n4ccnc34)cc2)CC1 [Compound 19, 5-(8-(4-(1-isopropyl-piperidin-4-yl)phenylamino)imidazo[1,2-a]pyridin-5-yl)isoindolin-1-one]"
< 100,> 3000,"O=C(NCCN1CCCC1)c1ccc(Nc2ccc(-c3ccc4c(c3)CNC4=O)n3ccnc23)cc1 [Compound 34, 4-(5-(1-oxoisoindolin-5-yl)imidazo[1,2-a]pyridin-8-ylamino)-N-(2-(pyrrolidin-1-yl)ethyl)benzamide]"
101 to 1000,1000 to 3000,"O=C1NCc2cc(-c3ccc(Nc4ccc(N5CCOCC5)cc4)c4nccn34)ccc21 [Compound 13, 5-(8-(4-morpholinophenyl-amino)imidazo [1,2-a]pyridin-5-yl)isoindolin-1-one]"
101 to 1000,> 3000,"CN1CCN(c2ccc(Nc3ccc(-c4cn[nH]c4)n4ccnc34)cc2)CC1 [Compound 4, [4-(4-Methyl-piperazin-1-yl)-phenyl]-[5-(1H-pyrazol-4-yl)-imidazo[1,2-a]pyridin-8-yl]-amine]"
101 to 1000,101 to 1000,"c1cn2c(-c3cn[nH]c3)ccc(Nc3ccc(N4CCOCC4)cc3)c2n1 [Compound 2, (4-Morpholin-4-yl-phenyl)-[5-(1H-pyrazol-4-yl)-imidazo[1,2-a]pyridin-8-yl]-amine]"
101 to 1000,1000 to 3000,NC(=O)c1ccc(-c2ccc(Nc3ccc(N4CCN(C5CCCCC5)CC4)cc3)c3nccn23)cc1 [Compound 77]
101 to 1000,1000 to 3000,"CCN(CC)CCNS(=O)(=O)c1ccc(Nc2ccc(-c3ccc4c(c3)CNC4=O)n3ccnc23)cc1 [Compound 22, N-(2-(diethylamino)ethyl)-4-(5-(1-oxoisoindolin-5-yl)imidazo[1,2-a]pyridin-8-ylamino)benzene sulfonamide]"
